Assays:
FAK [1] = molecular target: T1, FAK (Homo sapiens, UniProt Q05397); test: biochemical
FAK [2] = molecular target: T1, FAK; test: Cell-based capture ELISA for inhibition of FAK autophosphorylation [pY397] in U87MG cells; settings: Mean FAK Cell Mechanistic IC50 + 50% mP U87MG, + 50% mouse plasma

T1 sequence (Q05397 whole entry): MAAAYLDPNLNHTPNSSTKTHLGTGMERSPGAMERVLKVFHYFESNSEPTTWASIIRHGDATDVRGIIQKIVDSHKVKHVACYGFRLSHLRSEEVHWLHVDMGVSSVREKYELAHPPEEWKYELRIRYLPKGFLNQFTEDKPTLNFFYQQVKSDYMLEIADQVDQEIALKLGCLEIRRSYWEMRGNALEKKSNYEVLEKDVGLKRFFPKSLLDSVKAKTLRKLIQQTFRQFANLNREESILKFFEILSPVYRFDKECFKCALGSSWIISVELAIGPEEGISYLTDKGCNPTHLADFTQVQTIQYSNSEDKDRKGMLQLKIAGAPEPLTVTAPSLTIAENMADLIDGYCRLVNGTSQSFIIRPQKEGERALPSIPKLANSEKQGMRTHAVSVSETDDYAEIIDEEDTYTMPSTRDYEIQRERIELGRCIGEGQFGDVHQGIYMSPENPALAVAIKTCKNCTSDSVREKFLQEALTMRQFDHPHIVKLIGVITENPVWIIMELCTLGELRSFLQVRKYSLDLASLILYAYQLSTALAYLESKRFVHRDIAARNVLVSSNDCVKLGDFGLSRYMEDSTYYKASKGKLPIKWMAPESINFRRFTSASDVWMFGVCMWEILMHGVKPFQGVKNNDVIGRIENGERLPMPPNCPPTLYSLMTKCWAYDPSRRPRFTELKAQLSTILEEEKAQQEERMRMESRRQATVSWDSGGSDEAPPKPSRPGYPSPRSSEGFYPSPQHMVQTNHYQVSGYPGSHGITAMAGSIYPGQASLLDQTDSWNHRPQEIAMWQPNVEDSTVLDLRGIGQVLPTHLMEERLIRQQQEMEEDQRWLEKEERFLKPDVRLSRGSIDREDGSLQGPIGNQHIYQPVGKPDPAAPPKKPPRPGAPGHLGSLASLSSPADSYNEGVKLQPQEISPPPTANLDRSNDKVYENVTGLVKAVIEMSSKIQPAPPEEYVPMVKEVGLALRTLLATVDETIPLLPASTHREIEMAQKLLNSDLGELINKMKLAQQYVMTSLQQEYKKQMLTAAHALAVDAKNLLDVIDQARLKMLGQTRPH

Row | SMILES | IC50 (FAK [1]) [nM] | IC50 (FAK [2]) [nM]
1 | CCOP(=O)(Cc1ccc(Nc2ncc(C(F)(F)F)c(Nc3cccc(F)c3C(=O)NC)n2)c(OC)c1)OCC [Example 155, diethyl (4-{[4-{[3-fluoro-2-(methylcarbamoyl)phenyl]amino}-5-(trifluoromethyl)pyrimidin-2-yl]amino}-3-methoxybenzyl)phosphonate] | < 1000 | < 1000
2 | CCOP(=O)(Cc1ccc(Nc2ncc(C(F)(F)F)c(Nc3ccc([C@H]4CC[C@H](O)CC4)cc3C(=O)N(C)C)n2)c(OC)c1)OCC [Example 195, diethyl (4-{[4-{[2-(dimethylcarbamoyl)-4-(trans-4-hydroxycyclohexyl)phenyl]amino}-5-(trifluoromethyl)pyrimidin-2-yl]amino}-3-methoxybenzyl)phosphonate] | < 1000 | 1000 to 10000
3 | CCOP(=O)(CC)Cc1ccc(Nc2ncc(C(F)(F)F)c(Nc3ccc([C@H]4CC[C@H](O)CC4)c4c3C(=O)N(C)C4)n2)cc1 (stereo partly drawn) [Example 202, Ethyl ethyl(4-{[4-{[7-(trans-4-hydroxycyclohexyl)-2-methyl-3-oxo-2,3-dihydro-1H-isoindol-4-yl]amino}-5-(trifluoromethyl)pyrimidin-2-yl]amino}benzyl)phosphinate] | < 1000 | < 1000
4 | CCOP(=O)(Cc1ccc(Nc2ncc(C(F)(F)F)c(Nc3ccc(N4CCC(C(=O)O)CC4)c4c3C(=O)N(C)C4)n2)c(OC)c1)OCC [Example 256, 1-(7-{[2-({4-[(Diethoxyphosphoryl)methyl]-2-methoxyphenyl}amino)-5-(trifluoromethyl)pyrimidin-4-yl]amino}-2-methyl-1-oxo-2,3-dihydro-1H-isoindol-4-yl)piperidine-4-carboxylic acid] | < 1000 | < 1000
5 | CCOP(=O)(Cc1ccc(Nc2ncc(C(F)(F)F)c(Nc3ccccc3C(=O)NOC)n2)c(OC)c1)OCC [Example 259, Diethyl (3-methoxy-4-{[4-{[2-(methoxycarbamoyl)phenyl]amino}-5-(trifluoromethyl)pyrimidin-2-yl]amino}benzyl)phosphonate] | < 1000 | < 1000
6 | CCOP(=O)(Cc1ccc(Nc2ncc(C(F)(F)F)c(Nc3ccc(C4=CCNCC4)c4c3C(=O)N(C)C4)n2)c(OC)c1)OCC [Example 262, Diethyl (3-methoxy-4-{[4-{[2-methyl-3-oxo-7-(1,2,3,6-tetrahydropyridin-4-yl)-2,3-dihydro-1H-isoindol-4-yl]amino}-5-(trifluoromethyl)pyrimidin-2-yl]amino}benzyl)phosphonate] | < 1000 | < 1000
7 | CCOP(=O)(Cc1ccc(Nc2ncc(C(F)(F)F)c(Nc3ccc(C4CCNCC4)c4c3C(=O)N(C)C4)n2)c(OC)c1)OCC [Example 263, Diethyl (3-methoxy-4-{[4-{[2-methyl-3-oxo-7-(piperidin-4-yl)-2,3-dihydro-1H-isoindol-4-yl]amino}-5-(trifluoromethyl)pyrimidin-2-yl]amino}benzyl)phosphonate] | < 1000 | < 1000
8 | CCOP(=O)(Cc1ccc(Nc2ncc(C(F)(F)F)c(Nc3ccc(C4=CCN(C)CC4)c4c3C(=O)N(C)C4)n2)c(OC)c1)OCC [Example 264, Diethyl (3-methoxy-4-{[4-{[2-methyl-7-(1-methyl-1,2,3,6-tetrahydropyridin-4-yl)-3-oxo-2,3-dihydro-1H-isoindol-4-yl]amino}-5-(trifluoromethyl)pyrimidin-2-yl]amino}benzyl)phosphonate] | < 1000 | < 1000
9 | CCOP(=O)(Cc1ccc(Nc2ncc(C(F)(F)F)c(Nc3ccc([C@H]4CC[C@@H](C(=O)O)CC4)c4c3C(=O)N(C)C4)n2)cn1)OCC [Example 267, cis-4-(7-{[2-({6-[(Diethoxyphosphoryl)methyl]pyridin-3-yl}amino)-5-(trifluoromethyl)pyrimidin-4-yl]amino}-2-methyl-1-oxo-2,3-dihydro-1H-isoindol-4-yl)cyclohexanecarboxylic acid] | > 10000 | 1000 to 10000
10 | CCOP(=O)(Cc1ccc(Nc2ncc(C(F)(F)F)c(Nc3ccc([C@H]4CC[C@H](C(=O)O)CC4)c4c3C(=O)N(C)C4)n2)cn1)OCC [Example 268, trans-4-(7-{[2-({6-[(diethoxyphosphoryl)methyl]pyridin-3-yl}amino)-5-(trifluoromethyl)pyrimidin-4-yl]amino}-2-methyl-1-oxo-2,3-dihydro-1H-isoindol-4-yl)cyclohexanecarboxylic acid] | 1000 to 10000 | 1000 to 10000
11 | CCOP(=O)(Cc1ccc(Nc2ncc(C(F)(F)F)c(Nc3ccc(C4CCN(C)CC4)c4c3C(=O)N(C)C4)n2)c(OC)c1)OCC [Example 269, Diethyl (3-methoxy-4-{[4-{[2-methyl-7-(1-methylpiperidin-4-yl)-3-oxo-2,3-dihydro-1H-isoindol-4-yl]amino}-5-(trifluoromethyl)pyrimidin-2-yl]amino}benzyl)phosphonate] | < 1000 | < 1000
12 | CCOP(=O)(Cc1ccc(Nc2ncc(C(F)(F)F)c(Nc3ccc(-c4ccc(C(=O)O)cc4)c4c3C(=O)N(C)C4)n2)c(OC)c1)OCC [Example 270, 4-(7-{[2-({4-[(diethoxyphosphoryl)methyl]-2-methoxyphenyl}amino)-5-(trifluoromethyl)pyrimidin-4-yl]amino}-2-methyl-1-oxo-2,3-dihydro-1H-isoindol-4-yl)benzoic acid] | < 1000 | 1000 to 10000
13 | CCOP(=O)(Cc1ccc(Nc2ncc(C(F)(F)F)c(Nc3ccc([C@H]4CC[C@@H](C(=O)NC)CC4)c4c3C(=O)N(C)C4)n2)c(OC)c1)OCC [Example 271, Diethyl (3-methoxy-4-{[4-({2-methyl-7-[cis-4-(methylcarbamoyl)cyclohexyl]-3-oxo-2,3-dihydro-1H-isoindol-4-yl}amino)-5-(trifluoromethyl)pyrimidin-2-yl]amino}benzyl) phosphonate] | < 1000 | < 1000
14 | CCOP(=O)(Cc1ccc(Nc2ncc(C(F)(F)F)c(Nc3ccc([C@H]4CC[C@@H](C(N)=O)CC4)c4c3C(=O)N(C)C4)n2)c(OC)c1)OCC [Example 272, Diethyl (4-{[4-{[7-(cis-4-carbamoylcyclohexyl)-2-methyl-3-oxo-2,3-dihydro-1H-isoindol-4-yl]amino}-5-(trifluoromethyl)pyrimidin-2-yl]amino}-3-methoxybenzyl)phosphonate] | < 1000 | < 1000
15 | CCOP(=O)(Cc1ccc(Nc2ncc(C(F)(F)F)c(Nc3ccc([C@H]4CC[C@@H](C(=O)N(C)C)CC4)c4c3C(=O)N(C)C4)n2)c(OC)c1)OCC [Example 273, Diethyl (4-{[4-({7-[cis-4-(dimethylcarbamoyl)cyclohexyl]-2-methyl-3-oxo-2,3-dihydro-1H-isoindol-4-yl}amino)-5-(trifluoromethyl)pyrimidin-2-yl]amino}-3-methoxybenzyl)phosphonate] | < 1000 | < 1000
16 | CCOP(=O)(Cc1ccc(Nc2ncc(C(F)(F)F)c(Nc3ccc([C@H]4CC[C@@H](C(=O)OCCN(C)C)CC4)c4c3C(=O)N(C)C4)n2)c(OC)c1)OCC [Example 274, 2-(Dimethylamino)ethyl cis-4-(7-{[2-({4-[(diethoxyphosphoryl)methyl]-2-methoxyphenyl}amino)-5-(trifluoromethyl)pyrimidin-4-yl]amino}-2-methyl-1-oxo-2,3-dihydro-1H-isoindol-4-yl)cyclohexanecarboxylate] | < 1000 | < 1000
17 | CCOP(=O)(Cc1ccc(Nc2ncc(C(F)(F)F)c(Nc3ccc([C@H]4CC[C@@H](C(=O)NO)CC4)c4c3C(=O)N(C)C4)n2)c(OC)c1)OCC [Example 275, Diethyl (4-{[4-({7-[cis-4-(hydroxycarbamoyl)cyclohexyl]-2-methyl-3-oxo-2,3-dihydro-1H-isoindol-4-yl}amino)-5-(trifluoromethyl)pyrimidin-2-yl]amino}-3-methoxybenzyl)phosphonate] | < 1000 | < 1000
18 | CCOP(=O)(Cc1ccc(Nc2ncc(C(F)(F)F)c(Nc3ccc([C@H]4CC[C@@H](C(=O)NOC)CC4)c4c3C(=O)N(C)C4)n2)c(OC)c1)OCC [Example 276, Diethyl (3-methoxy-4-{[4-({7-[cis-4-(methoxycarbamoyl)cyclohexyl]-2-methyl-3-oxo-2,3-dihydro-1H-isoindol-4-yl}amino)-5-(trifluoromethyl)pyrimidin-2-yl]amino}benzyl)phosphonate] | < 1000 | < 1000
19 | CCOP(=O)(Cc1ccc(Nc2ncc(C(F)(F)F)c(Nc3ccc([C@H]4CC[C@](C)(C(=O)O)CC4)c4c3C(=O)N(C)C4)n2)c(OC)c1)OCC [Example 282, trans-4-(7-{[2-({4-[(Diethoxyphosphoryl)methyl]-2-methoxyphenyl}amino)-5-(trifluoromethyl)pyrimidin-4-yl]amino}-2-methyl-1-oxo-2,3-dihydro-1H-isoindol-4-yl)-1-methylcyclohexanecarboxylic acid] | < 1000 | < 1000
20 | CCOP(=O)(Cc1ccc(Nc2ncc(C(F)(F)F)c(Nc3ccc([C@H]4CC[C@@H](C#N)CC4)c4c3C(=O)N(C)C4)n2)c(OC)c1)OCC [Example 283, Diethyl (4-{[4-{[7-(cis-4-cyanocyclohexyl)-2-methyl-3-oxo-2,3-dihydro-1H-isoindol-4-yl]amino}-5-(trifluoromethyl)pyrimidin-2-yl]amino}-3-methoxybenzyl)phosphonate] | < 1000 | < 1000
21 | CCOP(=O)(Cc1ccc(Nc2ncc(C(F)(F)F)c(Nc3ccc([C@H]4CC[C@@](C)(C(=O)O)CC4)c4c3C(=O)N(C)C4)n2)c(OC)c1)OCC [Example 284, cis-4-(7-{[2-({4-[(Diethoxyphosphoryl)methyl]-2-methoxyphenyl}amino)-5-(trifluoromethyl)pyrimidin-4-yl]amino}-2-methyl-1-oxo-2,3-dihydro-1H-isoindol-4-yl)-1-methylcyclohexanecarboxylic acid] | < 1000 | < 1000

From patent publication US9096624B2 (OSI Pharmaceuticals, LLC, priority 2009, dated 2015)
